According to patent US10604580B2, “Combination therapies with anti-CD38 antibodies” (Janssen Biotech, Inc., priority 2014, dated 2020):

Legend:
[1] = test system: PBMCs from healthy donors; human MM cell lines L363-CD38, LME-1, RPMI8226 and UM9; assay: Effect of ATRA on effector cells (PBMC-induced ADCC); type: cell-based; details: data not shown
Method: (§1) The effect of ATRA on effector cells was evaluated. […] In the experiments, cells were cultured at 37° C. with RPMI-1640 medium with or without 10 nM ATRA 10 nM for 48 h. Cells were then incubated at 4° C. for 20 min with the appropriate conjugated antibodies panel. Flow cytometric analyses were performed using a FACS-Calibur device (Becton Dickinson); the data were analyzed using the CellQuest software.

XG-1 cells [2] = assay: BLI-based CDC assay, XG-1; type: cell-based, human; details: 10 nM ATRA 48 hours vs solvent control
RPMI8226 cells [3] = assay: CD38 expression by flow cytometry, RPMI8226; type: cell-based, human; details: ATRA
Method: (§2) Expression of several cell surface proteins was determined by flow cytometric analysis using FITC-, PE-, Per-CP-, or APC-conjugated monoclonal antibodies. Anti-CD38, anti-CD138, and anti-CD56 were purchased from Beckman Coulter; anti-CD3, anti-CD16, anti-CD55, anti-CD59 from BD Biosciences; and anti-CD46 from Biolegend. Flow cytometry was done using a FACS-Calibur device (Becton Dickinson); the data were analyzed using the CellQuest software.
(§3) Interaction of ATRA with nuclear retinoic acid receptors results in altered expression of target genes including induction of CD38 expression (Malavasi F. J Leukoc Biol 90:217-219, 2011; Drach et al., Cancer Res 54:1746-1752, 1994). Therefore, effect of ATRA on MM cell lines RPMI8226, UM9, and XG1 was studied. MM cells were incubated with RPMI-1640 medium alone or with ATRA ranging from 0-25 nM for 48 hours (FIG. 1A) or were incubated with 10 nM ATRA for 24, 48, 72 or 96 hours (FIG. 1B) and then harvested to determine CD38 expression by flow cytometry using a FACS-Calibur device (Becton Dickinson) and anti-CD38 antibody (Beckman Coulter). The data were analyzed using the CellQuest software.

UM9 cells [4] = assay: BLI-based ADCC assay, UM9; details: 10 nM ATRA 48 hours vs solvent control
Method: (§5) For MM cell lines, CDC and ADCC were assessed using bioluminescence imaging (BLI) based ADCC and CDC assays as described above. For primary MM cells, CDC and ADCC were assessed using Flow cytometry-based ex vivo ADCC and CDC assays in BM-MNC as described above. […] Isotype control was added at 10 μg/ml, and 10% heat-inactivated serum was used as control for CDC.

[5] = test system: RPMI8226, L363 and XG-1 cells; assay: Complement-inhibitory protein expression on MM cell lines by flow cytometry; type: cell-based, human; details: 0-25 nM ATRA, 48 hour
Method: as §2, §1

RPMI8226 cells [6] = assay: BLI-based CDC assay, RPMI8226; type: cell-based, human; details: 10 nM ATRA 48 hours
primary MM cells [7] = assay: Flow cytometry-based ex vivo CDC assay in BM-MNC; type: cell-based, human; details: for CDC, median: 10 μg/mL daratumumab, pooled patients
Method: (§4) Freshly isolated BM-MNCs, containing 2-57% malignant plasma cells as determined by flow cytometry, were immediately used in ex vivo experiments. […] Pooled human serum (10%) was used as a source of complement. The survival of primary CD138^+ MM cells in the BM-MNCs was determined by flow-cytometry as previously described (van der Veers et al., Haematologica 96:284-290, 2011; van der Veers et al., Blood Cancer J 1:e41, 2011). Surviving MM cells were enumerated by single platform flow-cytometric analysis of CD138^+ cells (with CD138-PE (Beckman Coulter, Miami, Fla., USA)) in the presence of Flow-Count Fluorospheres (Beckman Coulter) to determine absolute numbers of cells.

primary MM cells [8] = assay: Flow cytometry-based ex vivo ADCC assay in BM-MNC; type: cell-based, human; details: for ADCC, median: 10 μg/mL daratumumab, pooled patients
Method: as §4, with “experiments. […] Sample viability at incubation was more than 98%, as assessed by using ToPro-3 (Invitrogen/Molecular Probes).” for “experiments.”

[9] = test system: MM cell lines RPMI8226, UM9, and XG1; assay: CD38 expression on MM cell lines by flow cytometry (pooled statement); type: cell-based, human
Method: as §2, §3

UM9 cells [10] = assay: CD38 expression by flow cytometry, UM9; type: cell-based, human; details: ATRA
Method: as §2, §3

XG-1 cells [11] = assay: CD38 expression by flow cytometry, XG-1; type: cell-based, human; details: ATRA
Method: as §2, §3

[12] = test system: luciferase-transduced XG1 multiple myeloma cells; assay: Humanized multiple myeloma mouse model, tumor growth by BLI; type: in vivo, RAG2−/−γc−/− mice; details: for tumor progression (BLI): single agent plus PBMC-T, daratumumab 8 mg/kg i.p., ATRA 10 mg/kg i.p., weekly BLI for 5 weeks
Source text: Hybrid scaffolds consisting of three 2-3 mm biphasic calcium phosphate particles were coated in vitro with human mesenchymal stromal cells (MSCs; 2×10^5 cells/scaffold). After a week of in vitro culture in a osteogenic medium, humanized scaffolds were implanted subcutaneously into RAG2^−/−γc^−/− mice, as described previously (Groen et al., Blood. 19; 120:e9-e16, 2012; de Haart et al., Clin. Cancer Res. 19:5591-5601, 2013).
Eight weeks after implantation, mice received a sublethal irradiation dose (3 Gy, 200 kV, 4 mA) and luciferase-transduced XG1 cells were injected directly into the scaffold (1×10^6 cells/scaffold). […] PBMC-T were prepared by Ficoll-Hypaque density-gradient centrifugation of buffy coats, and subsequent depletion of T cells by CD3-beads using the Easy Sep™-technology ([…] Technologies). Tumor growth was monitored by weekly BLI measurements as described previously (Groen et al., Blood. 19; 120:e9-e16, 2012). All animal experiments were conducted after acquiring permission from the local ethical committee for animal experimentation and were in compliance with the Dutch Animal Experimentation Act. The statistical differences between the different treatment groups in the mice experiments were calculated using a Mann-Whitney test. P-values below 0.05 were considered significant.
Luciferase-transduced XG1 multiple myeloma cells developed into aggressive tumors in immunodeficient RAG2^−/−γc^−/− mice in a humanized bone marrow microenvironment generated by subcutaneous implantation of MSC-coated ceramic scaffolds. […] To follow the outgrowth of the tumor, BLI was performed weekly for 5 weeks.

[13] = test system: primary MM cells (BM-MNCs from 26 MM patients); assay: Ex vivo ATRA exposure of primary MM cells, surface antigen expression by flow cytometry; type: cell-based, human; details: 10 nM ATRA, 48 hours
Method: as §2
Ex vivo ATRA exposure (10 nM, 48 hours) of primary MM cells from 26 patients was also studied. In these experiments, BM-MNCs from 26 MM patients were incubated with RPMI-1640 medium alone or with 10 nM ATRA for 48 hours, incubated at 4° C. for 20 min with FITC-conjugated CD38 antibody (Beckman Coulter) and then harvested to determine CD38 expression by flow cytometry. Flow cytometric analyses were performed using a FACS-Calibur device (Becton Dickinson); the data were analyzed using the CellQuest software.

[14] = test system: MM cell lines XG-1, RPMI8226 and UM9; assay: BLI-based ADCC and CDC assays, ATRA alone; type: cell-based, human; details: 10 nM ATRA alone
RPMI8226 cells [15] = assay: BLI-based ADCC assay, RPMI8226; details: 10 nM ATRA 48 hours
Method: as §5

[16] = test system: primary MM cells derived from 16 patients; assay: Complement-inhibitory protein expression on primary MM cells by flow cytometry; type: cell-based, human; details: 10 nM ATRA, 48 h
Method: as §2, §1

XG-1 cells [17] = assay: BLI-based ADCC assay, XG-1; details: 10 nM ATRA 48 hours vs solvent control
Method: as §5

[18] = after 10 nM ATRA pretreatment 48 hours

With `CC1=C(/C=C/C(C)=C/C=C/C(C)=C/C(=O)O)C(C)(C)CCC1` [ATRA, all-trans retinoic acid] the “effect on ability of PBMCs to induce ADCC” value [1] was “no effect or minimal effect”, the “effect of ATRA pretreatment on daratumumab-mediated CDC” value (XG-1 cells [2]) was “significantly increased” and the “upregulation of CD38 expression” value (RPMI8226 cells [3]) was 1.9 fold. For the same compound, the “effect of ATRA pretreatment on daratumumab-mediated ADCC” value (UM9 cells [4]) was “significantly increased”, the CD46 expression levels [5] was “reduced expression levels” and the CD55 expression levels [5] was “reduced expression levels”. For the same compound, the CD59 expression levels [5] was “reduced expression levels”, the “effect of ATRA pretreatment on daratumumab-mediated CDC” value (RPMI8226 cells [6]) was “no significant improvement” and the “patients with significant increase in susceptibility to daratumumab-mediated CDC” value (primary MM cells [7]; ATRA pretreatment 48 hours) was 13 out of 16. For the same compound, the “effect of ATRA on daratumumab-mediated CDC in cells not responsive to daratumumab alone” value (primary MM cells [7]; for example patients 1, 4, 8, 12, 13, 15 and 16) was “induced daratumumab-mediated CDC”, the “effect of ATRA enhancing daratumumab-mediated CDC in some patient samples” value (primary MM cells [7]; for example patients 6, 7 and 14) was “no additional effect” and the “patients with significant increase in susceptibility to daratumumab-mediated ADCC” value (primary MM cells [8]; ATRA pretreatment 48 hours) was 8 out of 11. The “effect of ATRA on daratumumab-mediated ADCC” value (primary MM cells [8]; most primary MM cells tested) was “induced daratumumab-mediated ADCC”, the “increase in CD38 expression” value ([9]; 10 nM ATRA (minimum sufficient), 48 hours, RPMI8226, UM9, XG1) was 1.9-4.4 fold and the “time of maximum enhancement of CD38 expression” value ([9]; 10 nM ATRA for 24, 48, 72 or 96 hours) was 48 h. The “CD38 expression at higher doses of ATRA” value ([9]; doses above 10 nM up to 25 nM, 48 hours) was “did not further enhance”, the “enhanced CD38 expression” value (UM9 cells [10]) was 4.4 fold and the “enhanced CD38 expression” value (XG-1 cells [11]) was 2.9 fold. The “effect of ATRA on anti-MM effect of daratumumab” value ([12]; daratumumab 8 mg/kg plus ATRA 10 mg/kg plus PBMC-T vs daratumumab plus PBMC-T) was “significantly enhanced”, the “tumor progression (BLI)” value [12] was “no effect” and the “CD138 expression levels, median increase” value [13] was 2.0 fold. For the same compound, the “expression of CD56” value [13] was “no significant changes”, the “expression of HLA A/B/C” value [13] was “no significant changes” and the “CD38 expression increase, range” value ([13]; 26 patients) was 1.0-26.5 fold. For the same compound, the “CD38 expression, median increase” value ([13]; 26 patients) was 1.7 fold, the “MM cell lysis by ATRA alone” value [14] was “no MM cell lysis” and the “effect of ATRA pretreatment on daratumumab-mediated ADCC” value (RPMI8226 cells [15]) was “no significant improvement”. For the same compound, the CD46 expression levels [16] was “did not significantly affect”, the “expression of CD59, mean reduction” value ([16]; P=0.0047) was 37.5% and the “expression of CD55, mean reduction” value ([16]; P=0.019) was 21.3%. For the same compound, the “effect of ATRA pretreatment on daratumumab-mediated ADCC” value (XG-1 cells [17]) was “significantly increased”.

In the case of “daratumumab: anti-CD38 antibody, IgG1/κ, VH SEQ ID NO: 4, VL SEQ ID NO: 5, heavy chain SEQ ID NO: 12, light chain SEQ ID NO: 13”, the “CDC, median” value (primary MM cells [7]; [18]) is reported as 43.9%, the “CDC, median” value (primary MM cells [7]; without ATRA pretreatment) is reported as 16.1% and the “ADCC, median” value (primary MM cells [8]; [18]) is reported as 39.5%. For the same compound, the “ADCC, median” value (primary MM cells [8]; without ATRA pretreatment) was 25.1% and the “tumor progression (BLI)” value [12] was “markedly slowed tumor progression”.
